{"source": "patent US12594267B2", "about": "“Capsid inhibitors for the treatment of HIV” (Gilead Sciences, Inc., priority 2018, dated 2026)", "test": "PK after subcutaneous administration of solutions in rats", "assay_type": "in vivo, Wistar Han rat", "details": "Wistar Han, plasma, rat, SC 50 mg/kg; for AUC(0-t) / concentration at 28 d / concentration at 84 d / Cmax / concentration at 98 d / concentration at 168 d / concentration at 1 h / concentration at 3 h / concentration at 8 h / concentration at 24 h / concentration at 48 h / concentration at 72 h / concentration at 96 h / concentration at 168 h / concentration at 336 h / concentration at 504 h / concentration at 672 h / concentration at 840 h / concentration at 1008 h / concentration at 1344 h / concentration at 1680 h: sc, 50 mg/kg; for concentration at 28 d: read-out: C28d; for concentration at 84 d: read-out: C84d; for concentration at 98 d: read-out: C98d; for concentration at 1 h / concentration at 3 h / concentration at 8 h / concentration at 24 h / concentration at 48 h / concentration at 72 h / concentration at 96 h / concentration at 168 h / concentration at 336 h / concentration at 504 h / concentration at 672 h / concentration at 840 h / concentration at 1008 h / concentration at 1344 h / concentration at 1680 h: male, 300 mg/mL in 15% water/85% PEG 300", "protocol": "Formulations containing the compound of Formula (Ia) were prepared as aqueous solutions or oral formulations and administered subcutaneously to rats, dogs, cynomolgus monkey, and/or rhesus monkey.\nA solution of the compound of Formula (Ia) in 10% ethanol, 13% water, and 77% PEG 200 (400 mg/mL) was prepared. The solution was administered subcutaneously to dogs at a dose of 12 mg/kg and rats at a dose of 50 mg/kg and the pharmacokinetic (PK) profile was determined. […] In both species, plasma concentrations of the compound of Formula (Ia) were maintained above the target trough concentration of 20 nM (corresponding to an IQ of 5) for at least 84 days (12 weeks).\nA solution of the free acid of the compound of Formula (Ia) in 15% water and 85% PEG 300 (300 mg/mL) was prepared. The solution was administered subcutaneously to male Wistar Han rats at a dose level of 50 mg/kg and dose volume of 0.167 mL/kg and the pharmacokinetic (PK) profile was determined.\nA 300 mg/ml solution of a compound of Formula (Ia) having 9.8 w/w % water, 65.0 w/w % PEG 300, and 25.2 w/w % of the compound of Formula (Ia) was prepared. The solution was administered subcutaneously to rats at a dose of 50 mg/kg and to dogs at a dose of 12 mg/kg and the pharmacokinetic (PK) profile was determined. […] In the rat, plasma concentrations of the compound of Formula (Ia) were maintained above the target trough concentration of 20 nM for at least 168 days (24 weeks). In the dog, plasma concentrations of the compound of Formula (Ia) were maintained above the target trough concentration of 20 nM for at least 84 days (12 weeks).\n(§1) A 150 mg/ml solution of a compound of Formula (Ia) having 27.92 w/w % water, 58.04 w/w % PEG 300, 13.47 w/w % of a compound of Formula (Ia), and 1.1 w/w % NaOH was prepared. The solution was administered subcutaneously to rats at a dose of 50 mg/kg and to dogs at a dose of 12 mg/kg and the pharmacokinetic (PK) profile was determined. […] In the rat, plasma concentrations of the compound of Formula (Ia) were maintained above the target trough concentration of 20 nM for at least 126 days (18 weeks). In the dog, plasma concentrations of the compound of Formula (Ia) were maintained above the target trough concentration of 20 nM for at least 56 days (8 weeks).\nas §1, with “300” for “150”, “23.2” for “27.92”, “50.0” for “58.04”, “25.7” for “13.47”\nA 50 mg/ml solution of a compound of Formula (Ia) having 30.07 w/w % water, 64.40 w/w % PEG 300, 4.68 w/w % of a sodium salt of the compound of Formula (Ia), and 0.85 w/w % poloxamer 188 was prepared. The solution was administered subcutaneously to rats at a dose of 50 mg/kg and to dogs at a dose of 6 mg/kg and the pharmacokinetic (PK) profile was determined. […] In the rat, plasma concentrations of the compound of Formula (Ia) were maintained above the target trough concentration of 20 nM for at least 28 days (4 weeks). In the dog, plasma concentrations of the compound of Formula (Ia) were maintained above the target trough concentration of 20 nM for at least 14 days (2 weeks).\nA 75 mg/ml solution of a compound of Formula (Ia) having 29.21 w/w % water, 62.55 w/w % PEG 300, 6.97 w/w % of a sodium salt of the compound of Formula (Ia), and 1.68 w/w % poloxamer 188 was prepared. The solution was administered subcutaneously to rats at a dose of 50 mg/kg and to dogs at a dose of 6 mg/kg and the pharmacokinetic (PK) profile was determined. […]", "key": {"[1]": {"details": "150 mg/mL solution (w/w %: 27.92 water, 58.04 PEG 300, 13.47 Formula (Ia), 1.1 NaOH), mean ± SD, n=3"}, "[2]": {"details": "300 mg/mL solution (w/w %: 21.97 water, 47.05 PEG 300, 25.21 Formula (Ia), 1.08 NaOH, 4.69 poloxamer 188), mean ± SD, n=3"}, "[3]": {"details": "400 mg/mL solution in 10% ethanol, 13% water, 77% PEG 200, mean ± SD, n=3"}}, "note": "Where two headings read alike, the source gives them in different places.", "data": [{"smiles": "CC(C)(C#Cc1ccc(-c2ccc(Cl)c3c(NS(C)(=O)=O)nn(CC(F)(F)F)c23)c([C@H](Cc2cc(F)cc(F)c2)NC(=O)Cn2nc(C(F)(F)F)c3c2C(F)(F)[C@@H]2C[C@H]32)n1)S(C)(=O)=O", "note": "[Formula (Ia), N—((S)-1-(3-(4-chloro-3-(methylsulfonamido)-1-(2,2,2-trifluoroethyl)-1H-indazol-7-yl)-6-(3-methyl-3-(methylsulfonyl)but-1-yn-1-yl)pyridin-2-yl)-2-(3,5-difluorophenyl)ethyl)-2-((3bS,4aR)-5,5-difluoro-3-(trifluoromethyl)-3b,4,4a,5-tetrahydro-1H-cyclopropa[3,4]cyclopenta[1,2-c]pyrazol-1-yl)acetamide]", "values": [{"measurement": "Tmax", "setting": "[1]", "result": "18.7 ± 4.04", "unit": "days"}, {"measurement": "AUC(0-t)", "setting": "50 mg/mL solution (w/w %: 30.07 water, 64.40 PEG 300, 4.68 sodium salt of Formula (Ia), 0.85 poloxamer 188), mean ± SD, n=3, read-out: AUC0-7d", "result": "156 ± 48", "unit": "µM·h"}, {"measurement": "concentration at 28 d", "setting": "50 mg/mL solution (w/w %: 30.07 water, 64.40 PEG 300, 4.68 sodium salt of Formula (Ia), 0.85 poloxamer 188), mean ± SD, n=3", "result": "82 ± 35", "unit": "nM"}, {"measurement": "concentration at 28 d", "setting": "75 mg/mL solution (w/w %: 29.21 water, 62.55 PEG 300, 6.97 sodium salt of Formula (Ia), 1.68 poloxamer 188), mean ± SD, n=3", "result": "32.5 ± 18.5", "unit": "nM"}, {"measurement": "AUC(0-t)", "setting": "100 mg/mL solution (w/w %: 28.36 water, 60.73 PEG 300, 9.23 sodium salt of Formula (Ia), 1.68 poloxamer 188), mean ± SD, n=3, read-out: AUC0-7d", "result": "202 ± 27", "unit": "µM·h"}, {"measurement": "concentration at 28 d", "setting": "100 mg/mL solution (w/w %: 28.36 water, 60.73 PEG 300, 9.23 sodium salt of Formula (Ia), 1.68 poloxamer 188), mean ± SD, n=3", "result": "415 ± 98", "unit": "nM"}, {"measurement": "concentration at 28 d", "setting": "125 mg/mL solution (w/w %: 27.51 water, 58.92 PEG 300, 11.48 sodium salt of Formula (Ia), 2.09 poloxamer 188), mean ± SD, n=3", "result": "27.9 ± 26.2", "unit": "nM"}, {"measurement": "concentration at 84 d", "setting": "150 mg/mL solution (w/w %: 26.6 water, 56.97 PEG 300, 13.39 Formula (Ia), 0.57 NaOH, 2.49 poloxamer 188), mean ± SD, n=3", "result": "53.3 ± 45.7", "unit": "nM"}, {"measurement": "Cmax", "setting": "[1]", "result": "809 ± 21", "unit": "nM"}, {"measurement": "concentration at 98 d", "setting": "[1]", "result": "37 ± 10.7", "unit": "nM"}, {"measurement": "Cmax", "setting": "300 mg/mL solution (w/w %: 9.8 water, 65.0 PEG 300, 25.2 Formula (Ia)), mean ± SD, n=3", "result": "318 ± 146", "unit": "nM"}, {"measurement": "concentration at 168 d", "setting": "300 mg/mL solution (w/w %: 9.8 water, 65.0 PEG 300, 25.2 Formula (Ia)), mean ± SD, n=3, read-out: Cd168", "result": "78.4 ± 13.8", "unit": "nM"}, {"measurement": "Cmax", "setting": "[2]", "result": "915 ± 248", "unit": "nM"}, {"measurement": "concentration at 98 d", "setting": "[2]", "result": "51.3 ± 36.5", "unit": "nM"}, {"measurement": "Cmax", "setting": "300 mg/mL solution (w/w %: 23.2 water, 50.0 PEG 300, 25.7 Formula (Ia), 1.1 NaOH), mean ± SD, n=3", "result": "355 ± 36", "unit": "nM"}, {"measurement": "concentration at 168 d", "setting": "300 mg/mL solution (w/w %: 23.2 water, 50.0 PEG 300, 25.7 Formula (Ia), 1.1 NaOH), mean ± SD, n=3, read-out: C168d", "result": "12.8 ± 3.5", "unit": "nM"}, {"measurement": "AUC(0-t)", "setting": "400 mg/mL solution in 10% ethanol, 13% water, 77% PEG 200, mean ± SD, n=3, read-out: AUC0-140d", "result": "569 ± 157", "unit": "µM·h"}, {"measurement": "concentration at 84 d", "setting": "[3]", "result": "162 ± 30", "unit": "nM"}, {"measurement": "Cmax", "setting": "[3]", "result": "283 ± 119", "unit": "nM"}, {"measurement": "concentration at 1 h", "setting": "rat #1", "result": 8.9, "unit": "nM"}, {"measurement": "concentration at 3 h", "setting": "rat #1", "result": 27, "unit": "nM"}, {"measurement": "concentration at 8 h", "setting": "rat #1", "result": 37, "unit": "nM"}, {"measurement": "concentration at 24 h", "setting": "rat #1", "result": 52.6, "unit": "nM"}, {"measurement": "concentration at 48 h", "setting": "rat #1", "result": 69.8, "unit": "nM"}, {"measurement": "concentration at 72 h", "setting": "rat #1", "result": 65.6, "unit": "nM"}, {"measurement": "concentration at 96 h", "setting": "rat #1", "result": 65.5, "unit": "nM"}, {"measurement": "concentration at 168 h", "setting": "rat #1", "result": 143, "unit": "nM"}, {"measurement": "concentration at 336 h", "setting": "rat #1", "result": 258, "unit": "nM"}, {"measurement": "concentration at 504 h", "setting": "rat #1", "result": 327, "unit": "nM"}, {"measurement": "concentration at 672 h", "setting": "rat #1", "result": 333, "unit": "nM"}, {"measurement": "concentration at 840 h", "setting": "rat #1", "result": 322, "unit": "nM"}, {"measurement": "concentration at 1008 h", "setting": "rat #1", "result": 300, "unit": "nM"}, {"measurement": "concentration at 1344 h", "setting": "rat #1", "result": 251, "unit": "nM"}, {"measurement": "concentration at 1680 h", "setting": "rat #1", "result": 202, "unit": "nM"}, {"measurement": "concentration at 1 h", "setting": "rat #2", "result": 11.4, "unit": "nM"}, {"measurement": "concentration at 3 h", "setting": "rat #2", "result": 17.3, "unit": "nM"}, {"measurement": "concentration at 8 h", "setting": "rat #2", "result": 32.8, "unit": "nM"}, {"measurement": "concentration at 24 h", "setting": "rat #2", "result": 49.2, "unit": "nM"}, {"measurement": "concentration at 48 h", "setting": "rat #2", "result": 71.1, "unit": "nM"}, {"measurement": "concentration at 72 h", "setting": "rat #2", "result": 66.9, "unit": "nM"}, {"measurement": "concentration at 96 h", "setting": "rat #2", "result": 76.8, "unit": "nM"}, {"measurement": "concentration at 168 h", "setting": "rat #2", "result": 132, "unit": "nM"}, {"measurement": "concentration at 336 h", "setting": "rat #2", "result": 273, "unit": "nM"}, {"measurement": "concentration at 504 h", "setting": "rat #2", "result": 267, "unit": "nM"}, {"measurement": "concentration at 672 h", "setting": "rat #2", "result": 299, "unit": "nM"}, {"measurement": "concentration at 840 h", "setting": "rat #2", "result": 316, "unit": "nM"}, {"measurement": "concentration at 1008 h", "setting": "rat #2", "result": 258, "unit": "nM"}, {"measurement": "concentration at 1344 h", "setting": "rat #2", "result": 229, "unit": "nM"}, {"measurement": "concentration at 1680 h", "setting": "rat #2", "result": 166, "unit": "nM"}, {"measurement": "concentration at 1 h", "setting": "rat #3", "result": 5.6, "unit": "nM"}, {"measurement": "concentration at 3 h", "setting": "rat #3", "result": 20.1, "unit": "nM"}, {"measurement": "concentration at 8 h", "setting": "rat #3", "result": 26.8, "unit": "nM"}, {"measurement": "concentration at 24 h", "setting": "rat #3", "result": 42.8, "unit": "nM"}, {"measurement": "concentration at 48 h", "setting": "rat #3", "result": 70.8, "unit": "nM"}, {"measurement": "concentration at 72 h", "setting": "rat #3", "result": 70.1, "unit": "nM"}]}]}
